From US20110201105A1, “LACTATION-ASSOCIATED POLYPEPTIDES” (Dairy Australia Limited, priority 2007, published 2011)

How the values were obtained:
MDA-MB-231 cells = assay: MDA-MD-231 Matrigel outgrowth assay; format: cell-based; settings: MDA-MB-231 cells on Matrigel, after 5 days, compared to control (OPTIMEM)
Experimental: FIG. 14: Matrigel outgrowth assay. Monolayers of cells (MDA-MD-MB231) were grown to 80% confluence and collected during log phase. 5×10^3 cells were added per well (96 well format) on top of preset Matrigel (50 ul). 50 ul of bioactive supematant was added per well. Colony outgrowth was monitored over the course of the experiment and photographed after 2 (FIG. 14A) and 5 (FIG. 14B) days.
Monolayers of cells (MDA-MD-MB231) were grown in DMEM+10% FCS to 80% confluence and collected during log phase. Cells were removed from plastic using versene/trypsin (2 min/370C) and resuspended in 10 ml media. Cell were washed thrice with PBS and centrifugation. 5×10^3 cells were added per well (96 well format) on top of preset Matrigel (50 ul). 50 ul of bioactive supernatant was added per well. Colony outgrowth was monitored over the course of the experiment and photographed after 2 and 5 days.

[1] = test system: HSC-2 oral epithelial cells; assay: Cell viability assay to assess anti- and pro-apoptotic effects (vinblastine, Alamar Blue); format: cell-based; settings: HSC-2 cells
Experimental: Plasmids containing Tammar wallaby LAMs were directionally cloned into the expression vector pCMV Sport 6.0, and then transfected into the human kidney cell line HK293. A total of 1 μg of LAM-containing plasmid DNA and 10 ng of pEGFP-C1 plasmid was introduced into 70% confluent HK293 cells in 2 cm^2 wells containing 500 ul of opti-MEM-1 media. Transfection success was assessed by observing green fluorescence of cells by fluorescent microscopy. After 48 hours conditioned media containing the secreted polypeptide was collected and frozen at −20° C. The media containing the secreted polypeptides was then used directly in a variety of bioactivity assays. For the assays described below, samples of secreted polypeptides were aliquoted into individual wells of 96 or 384 well plates and stored, prior to assaying, either frozen or lyophilized.
A negative control created by transfection with an insertless vector was used in all assays. For the assays described in Examples 4A, 4B, 4C and 4D results for samples were in the form of relative fluorescence units (RFU) as described herein. […] In some cases, RFU less than two standard deviations from the mean were considered significant if the LAM sample in question produced a positive result in another assay.
Vinblastine is a commonly used cytotoxic agent used in chemotherapy. It induces apoptosis in a wide variety of cell types. Caspase activation and DNA fragmentation are hallmarks of the apoptotic process.
Aliquots of the secreted polypeptide samples in 96 well plates were pipetted onto HSC-2 oral epithelial cells and the cells left for 24 hours. After this time, the cells were treated with vinblastine to induce apoptosis. After a further 48 hours, the cells were analyzed for survival using a vital dye, namely Alamar Blue (resazurin) fluorescent dye (TGR BioSciences Pty Ltd, Adelaide, Australia). This dye method is a TGR proprietary assay technology and as such would be known by a person skilled in the art. Internal controls for induction of cell death via apoptosis as well as assay performance were also included on each plate. Cell survival measurements with this technique reflected the degree of apoptosis.

Substance: LAM 13: PLA2G1B; tammar wallaby polypeptide SEQ ID NO 43, bovine polypeptide SEQ ID NO 103
- proliferation of cells (MDA-MB-231 cells): increased proliferation of cells
- RFU (anti-apoptotic activity) ([1]; vinblastine, Alamar Blue, Mean RFU 679787, SD RFU 39919, negative control 696444 RFU): 779746 RFU
- anti- or pro-apoptotic activity (RFU versus mean) ([1]; text summary of Tables 8-11): anti-apoptotic activity
